Measured values published in US9968574B2, “Treatment of MCI and Alzheimer's disease” (The University of Kentucky Research Foundation, priority 2009, dated 2018).
Entries after “also recorded” stand apart in the source; their conditions may differ. Read-outs that look alike come from different tables or passages of the source.

Assays:
[1] = test system: H4 neuroglioblastoma cells stably transfected to overexpress amyloid precursor protein (APP); test: Aβ1-42 secreted into medium by H4 cells overexpressing APP, ELISA; type: cell-based
Protocol: H4 neuroglioblastoma cells stably transfected with a construct overexpressing amyloid precursor protein (APP) secret Aβ1-42 into the culture medium. […] The Aβ levels in the culture medium were measured using ELISAs (Invitrogen).
We then tested if other calcium channel blockers can inhibit Aβ 1-42 generation in H4 neuroglioma cultures. Known calcium channel blockers such as Amilodpine, Dilitiazem, Felodipine, Isradipine, Nicardipine, and Nimodipine were used in this experiment.

[2] = test system: Human astrocytoma cells; test: Inflammatory cytokine ELISAs in astrocytoma cultures; type: cell-based; conditions: for IL-1 secreted in the medium / IL-6 secreted in the medium / TNF-α secreted in the medium: 24 hours
Protocol: Following exposure medium was collected from each well and levels of inflammatory cytokines ([…], TNF-α, TGF-β and […]) were determined using commercially available ELISAs.
It was reported that inflammatory response elements (cytokines) are elevated in Alzheimer's disease patients. The inventors tested the nifedipine mix and individual analogs in astrocytoma cultures. Human astrocytoma cells were plated at 2.5×10^5 cells/well in 6 well culture plates and were grown for 24 hours. […] Three 6-well plates were subjected to each treatment. Following treatment, medium was collected from each well and levels of IL-1β, IL-6, TNF-α and TGF-β were measured using commercially available ELISAs.
Using a similar procedure to that described in Example 3, NFD-L1 was tested in astrocytoma cultures.

[3] = target: T1, beta secretase (BACE) (Homo sapiens, UniProt P56817); test: BACE activity, fluorescent substrate and purified recombinant BACE (Invitrogen kit); type: biochemical
T1 construct: purchased Invitrogen
Protocol: BACE activity was measured using a fluorescent substrate and purified recombinant BACE as part of a commercial kit from Invitrogen.
Using a similar procedure as described in Example 8, NFD-L1 was tested for inhibition of BACE activity.

[4] = test system: mice; test: Aβ and Aβ processing proteins in mice, ELISA and Western blot; type: in vivo, mouse; conditions: IP injections (nitroso-nifedipine 35 mg/kg, 3 days)
Protocol: It is contemplated that increased ADAM-10 levels lead to increased cleavage at the alpha secretase position of APP, minimizing generation of Aβ.
The effects of NFD-L1 on levels of enzymes involved in Aβ processing in vivo were determined using a similar procedure to that described in Example 15.

[5] = test system: H4 neuroglioma cultures that overexpress APP; test: Levels of enzymes involved in Aβ processing in H4 cultures overexpressing APP, immunohistochemistry; type: cell-based
Protocol: Following treatment, cultures were rinsed three times in PBS and fixed in 70% methanol/30% acetone for 30 minutes at −20° C. Cultures were then subjected to immunohistochemistry for BACE, PS-1, GPCR-3, nicastrin, and ADAM (the enzyme responsible for alpha secretase cleavage). 30 to 50 cells were imaged in 4-5 fields/dish (3 dishes each treatment) (FIG. 22). […] Alpha secretase cleavage leads to decreased Aβ1-42.
Using a similar procedure as described in Example 13, H4 neuroglioma cultures were treated with NFD-L1 to determine the effects of NFD-L1 on levels of enzymes involved in Aβ processing.

[6] = test system: PDS/TTR complex; test: PDS/TTR complex expressed into culture medium by choroid plexus epithelial cells, Western blot; type: cell-based, human; conditions: control epithelial cells, 5 μM acrolein, 72 hours
Protocol: For these experiments, primary cultures of choroid plexus epithelial cells were established from short post mortem interval autopsies using established methods. AD and normal control cultures were grown to confluence in MEM growth medium containing 2% fetal bovine serum and 1% epithelial growth factor (EGF). Normal control cultures were switched to Opti-MEM containing N2 supplement and were treated with vehicle (controls) or with 5 μM acrolein for 72 hours. […] After treatment, medium was collected from each flask and was desalted using PD-10 columns. The eluted proteins were then freeze-dried, resuspended in 25 μl water and analyzed using Western blot analysis and antibodies specific to PDS and TTR.
The amount of PDS/TTR secreted into the culture medium by each culture was determined by Western blot analysis as described above.

[7] = test system: PDS/TTR complex; test: PDS/TTR-positive epithelial cells by immunostaining; type: cell-based, human; conditions: acrolein alone
Excerpt: In addition, immunostaining was used to determine the PDS/TTR-positive cells and the numbers of PDS/TTR-positive cells from treated and untreated cell cultures were counted and compared.

[8] = test system: orphan G-coupled receptor protein 3 (GPCR-3); conditions: H4 cells, 1 μM (0.5 μM T3/0.5 μM T4), 16 hours
Protocol: Levels of GPCR-3 were measured using Western blot analysis using a GPCR-3 specific antibody.

[9] = test system: orphan G-coupled receptor protein 3 (GPCR-3); conditions: mice of Example 10
Protocol: (§1) Based on the in vitro data described above, the inventors initiated an acute exposure study in 3 month old C57-Black-6 (C57BL/6) mice.
In addition, GPCR-3 levels were determined in the C57BL/6 mice described above in Example 10 using Western blot analysis.

[10] = test system: C57/B16 mice; test: EAAT2 in tissue of treated mice, Western blot; type: in vivo, mouse; conditions: 25 mg/kg, 3 days
[11] = test system: C57/B16 mice; test: Brain Aβ1-40 in mice given nitroso-nifedipine IP, Covance ELISA; type: in vivo, mouse; conditions: 35 mg/kg IP, 3 days
Protocol: The animals were sacrificed 15 minutes following the final injection. Brains were quickly removed, split into hemispheres, and snap frozen in liquid nitrogen. Brains were shipped on dry ice and maintained at −80° C. until used for analysis. One hemisphere of each brain was homogenized in diethylamine (200 mg wet weight/mL) containing complete protease inhibitors using a Dounce homogenizer. Homogenate was centrifuged at 16,000×g for 30 minutes and 50 μL soluble protein subjected to Aβ1-40 quantification using a Covance ELISA per manufacturer's instructions. Results are expressed as % vehicle treated animals.

[12] = test system: H4 neuroglioma cultures; test: Survival of H4 cells, MTT reduction; type: cell-based; conditions: increasing concentrations, 16 hours
Protocol: Specifically, H4 neuroglioma cultures were plated at a density of 2.5×10^5 cells/well and allowed to attach overnight. […] Following treatment, MTT was added at a final concentration of 0.5 mg/mL and cultures incubated for 30 minutes. Following MTT treatment, medium was removed and the formazan crystals generated by mitochondrial conversion of MTT were dissolved in DMSO and absorbance was measured at 650 nm. Data are reported as mean±SEM % control MTT reduction (FIG. 21).

[13] = Liver toxicity study: serum alkaline phosphatase in mice; type: in vivo, mouse
[14] = test system: H4 neuroglioma cultures; test: Calcium influx after KCl depolarization in H4 cultures, Fluo-4 AM confocal microscopy; type: cell-based; conditions: 1 μM nifedipine or […] nitroso-nifedipine, 1 hour
Protocol: Cells were depolarized by addition of 40 μL 100 mM KCl and calcium levels quantified 30 seconds following depolarization by confocal microscopy (n=75-100 cells/dish for 3 dishes/treatment).

[15] = mouse, in vivo
Excerpt: as §1

T1 sequence (P56817 46-501): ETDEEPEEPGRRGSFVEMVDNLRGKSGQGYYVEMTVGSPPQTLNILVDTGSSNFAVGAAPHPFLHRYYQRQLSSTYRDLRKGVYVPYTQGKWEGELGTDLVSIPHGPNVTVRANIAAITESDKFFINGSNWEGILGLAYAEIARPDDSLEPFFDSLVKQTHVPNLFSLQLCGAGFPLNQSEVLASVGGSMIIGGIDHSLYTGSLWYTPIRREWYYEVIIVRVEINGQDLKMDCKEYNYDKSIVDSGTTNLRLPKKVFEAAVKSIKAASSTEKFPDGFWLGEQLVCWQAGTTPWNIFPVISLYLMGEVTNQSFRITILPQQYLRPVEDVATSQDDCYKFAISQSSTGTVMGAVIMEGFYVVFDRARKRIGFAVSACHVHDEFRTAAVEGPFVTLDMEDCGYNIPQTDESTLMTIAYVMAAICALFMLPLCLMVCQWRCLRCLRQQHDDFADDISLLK

Structure (SMILES)	IL-1 secreted in the medium [2]	IL-6 secreted in the medium [2]	TNF-α secreted in the medium [2]	BACE activity ([3]; agent alone)	ADAM-10 level [4]	Aβ1-40 level [4]	cleaved Notch-1 level [4]	presenilin-1 level [4]	ADAM-10 level [5]	BACE protein level [5]	PS-1 level [5]	nicastrin (NCT) level [5]	BACE activity ([3]; in combination with thyroxine)	further results
COc1ccc([C@@H]2Sc3ccccc3N(CCN(C)C)C(=O)[C@@H]2OC(C)=O)cc1 [Dilitiazem, reference compound]														Aβ formation, calcium channel blocker combined with T3/T4 ([1]; 1 μM with T3/T4, 16 hours): significant decrease
COC(=O)c1c(C)nc(C)c2c(=O)[nH]c3ccccc3c12 [NFD-L1]	significantly reduced	significantly reduced	significantly reduced	significantly inhibits	significant increase	significant decrease	significant increase	significant decrease	significant increase	significant decrease	significant decrease	significant decrease		inflammatory cytokine production [2]: inhibited; Aβ 1-42 generation ([1]; procedure similar to Example 6): inhibited
C=CC=O [acrolein]														expression of the PDS/TTR complex in culture medium [6]: increased; number of PDS/TTR-positive cells, % of untreated control [7]: about 600%
COC(=O)C1=C(C)NC(C)=C(C(=O)OC)C1c1ccccc1[N+](=O)[O-] [nifedipine, 1,4-dihydro-2,6-dimethyl-4-(2-nitrophenyl)-3,5-pyridinedicarboxylic acid dimethyl ester]				slightly inhibited									slightly inhibited	GPCR-3 expression level [8]: significantly reduced; GPCR-3 expression level [9]: reduced; EAAT2 level [10]: significant increase
COC(=O)c1c(C)nc(C)c(C(=O)OC)c1-c1ccccc1N=O [nitroso-nifedipine, 2,6-dimethyl-4-(2-nitrosophenyl)-3,5-pyridinedicarboxylic acid dimethyl ester]				significant inhibition; also recorded: significantly inhibits	significant increase	significant decrease	significant increase	significant decrease	significant increase	significant decrease	did not significantly alter	did not significantly alter	significant inhibition	levels of Aβ1-40, % vehicle treated animals [11]: significant decrease; resistance (survival) of H4 cultures compared to nifedipine [12]: more resistant; GPCR-3 level [5]: significant increase; serum alkaline phosphatase level ([13]; 35 mg/kg): significant decrease; serum alkaline phosphatase level ([13]; any dose): did not significantly increase; liver damage ([13]; mice): does not induce liver damage; Ca influx following depolarization [14]: significant increase
COC(=O)c1c(C)nc(C)c(C(=O)OC)c1-c1ccccc1[N+](=O)[O-] [oxidized nifedipine, 2,6-dimethyl-4-(2-nitrophenyl)-3,5-pyridinedicarboxylic acid dimethyl ester]	significantly reduced	significantly reduced	significantly reduced											presence in brain extracts (passing the blood-brain barrier) [15]: found in all samples analyzed
